What was measured:
Assay type in all cases: in vitro ADME
[1] = tested on: rat plasma proteins; assay: In vitro equilibrium dialysis (RED) protein binding, rat plasma; conditions: male, Sprague-Dawley, plasma, 4 h, 10 μM, pH 7.4
Protocol: (§1) Cilnidipine was tested by PsychoGenics using standard methodology in 96-well RED (Rapid Equilibrium Dialysis) plates from Thermo Fisher Scientific. Male Sprague-Dawley plasma and brain were obtained from BioIVT to provide the required protein matrix. Plasma was used undiluted, and brain homogenate was diluted 3 to 1 with PBS, pH 7.4. The protein matrix was spiked with the test compound dissolved in DMSO to achieve a 10 μM solution. Three chambers were used to allow for triplicate measures with a final DMSO concentration of <1% in each. The dialysate compartments of the 96-well dialysis chamber was loaded with PBS, pH 7.4 and the sample side was loaded with equal volume of the spiked protein matrix. The dialysis plate was then sealed and incubated at 37° C. for 4 h. After the incubation, samples were taken from each compartment. The buffer side was diluted with the appropriate matrix (plasma or brain homogenate) and the protein matrix side diluted with phosphate buffer. Resultant samples were then crashed in acetonitrile, centrifuged and the supernatant mixed with an aqueous solution providing samples for UPLC-MS/MS analysis. […] This control sample served as the basis for the determination of recovery. […] Samples were analyzed by UPLC-MS/MS using […] (MRM). The UPLC conditions consisted of a binary LC pump with autosampler, an InertSustain column (C18 column, 2.1×50 mm), utilizing gradient elution. The peak areas of the test compound in the buffer and test samples were used to calculate percent binding and recovery according to the following formulas: […]
(§2) The recovery determination serves as an indicator of reliability of the calculated protein binding value.
(§3) The characterization of protein binding is defined using the following ranges:
(§4) • Low 0 to 50% • Moderate 50 to 90% • High 90 to 99% • Very High>99%

[2] = as above; conditions: male, Sprague-Dawley, pH 7.4
Protocol: as §1, §2, §3, §4

[3] = tested on: rat brain homogenate proteins; assay: In vitro equilibrium dialysis (RED) protein binding, rat brain homogenate; conditions: male, Sprague-Dawley, rat, brain homogenate, 4 h, 10 μM, pH 7.4
Protocol: as §1, §2, §3, §4

[4] = as above; conditions: male, Sprague-Dawley, rat, pH 7.4
Protocol: as §1, §2, §3, §4

Row | Unbound (%) [1] [%] | recovery at 4 h, 10 μM [2] [%] | fraction unbound at 4 h, 10 μM ([2]; plasma) | Unbound (%) [3] [%] | fraction unbound at 4 h, 10 μM ([4]; brain homogenate) | recovery at 4 h, 10 μM [4] [%] | Compound
1 | 0.8 ± 0.02 | 112.7 ± 0.76 | 0.008 | 82.7 ± 4.98 | 0.827 | 132 ± 0.57 | CC(=O)CC(c1ccccc1)c1c(O)c2ccccc2oc1=O (centres unmarked) [warfarin]
2 | – | 93.7 ± 3.89 | – | – | – | 125 ± 1.54 | C=C[C@H]1C[N@@]2CC[C@H]1C[C@@H]2[C@@H](O)c1ccnc2ccc(OC)cc12 [quinidine]

— patent US20240358693A1, “METHODS OF TREATING PAIN” (Aisa Pharma, Inc., priority 2023, published 2024)
